Experimental data as given in patent US9714469B2, “Composition for increasing the lipophobicity of a watch-making component” (Rolex SA, priority 2010, dated 2017).

Assays:
[1] = Contact angle of test oil on coated watch-making surfaces (epilame effect); assay type: physicochemical; settings: for contact angle of the gold-plated brass part with the test oil: molecule alone at 10^−3 M, soaking 30 min; for contact angle test oil: molecule alone 10^−3 M in IPA, soaking 5 min
Procedure: (§1) The epilame effect is conventionally evaluated by measuring the contact angle of the lubricants or of a test fluid (water, test liquids NSSC test) on the surface of the component.
The increased epilame effect permitted by the composition of the invention must be such that this contact angle with a watch oil is greater than 30°, preferably 35°, even more preferably 40°, as such an angle corresponds to very high epilame efficacy (see Renaud 1956, Osowiecki 1962 and Massin 1971).
(§2) Deposit • Place the watch part or parts in a container with an adapted shape, • Cover the part or parts with coating solution (thiol, BP or BP/thiol-PFPE mixture), • Incubate between 5 minutes and 360 minutes, • Eliminate the supernatant—remove the part, • The part is drip dried (centrifugation).
Dehydration—Rinsing • The part which received the deposit is placed in an oven at 120° C. for a period ranging from 6 to 15 h (only for rubies and silicon), • The part is brought back to room temperature then immersed in IPA under ultrasound for 2 minutes, • The part is dried under a stream of hot air. […]
The lipophobic effect was evaluated by measuring the contact angles of a test oil having surface tension of 33 mN/m on different surfaces. […]
In accordance with the reference articles in the watch-making literature (Renaud 1956, Osowiecki 1962 and Massin 1971), an angle of over 40° with a watch lubricant corresponds to very high epilame efficacy. […]
On the basis of the kinetics of molecule I.1, the following parameters were used to test the four other thiol-PF and thiol-PFPE molecules (I.2, I.3, I.4, I.5): • Concentration: 10^−3 M for each compound I.1 to I.5 • Solvent: Isopropyl alcohol (IPA) or Biosane T212 (MMCC) • Soaking Time: 30 minutes • Rinsing time: 2 minutes under ultrasound • Drying: hot air
Evaluation of functional properties was carried out by measuring the contact angles between the surface of the watch-making component and the drop of watch-making oil. It is noticeable that the concentration of 10^−3 M gives results that comply with the desired epilame effect (angle greater than 30°) for all molecules I.1 to I.5.
(§3) The properties of thiol and bisphosphonate molecules in isolation were measured on the surfaces of steel and gold-plated substrates using solutions at 10^−3 M and in isopropanol in accordance with the protocol described in example 3 above, with a soaking time of 5 minutes.

[2] = Contact angle of water drops on coated watch-making surfaces; assay type: physicochemical; settings: molecule alone 10^−3 M in IPA, soaking 5 min
Procedure: as §1, §2
Dehydration—Rinsing • The part which received the deposit is placed in an oven at 120° C. for a period ranging from 6 to 15 h (only for rubies and silicon), • The part is brought back to room temperature then immersed in IPA under ultrasound for 2 minutes, • The part is dried under a stream of hot air.
Different surfaces were treated with solutions of thiol I.3 and BP II.1 molecules. […]
According to the epilame method described in paragraphs 3 and 5.1, the materials were treated by the mixture of the thiol molecule I.3. with the BP molecule II.1. dissolved in IPA. The contact angles were measured before and after treatment of the surface. […]
as §3

SMILES | contact angle of the gold-plated brass part with the test oil ([1]; solvent IPA) | contact angle of the gold-plated brass part with the test oil ([1]; solvent MMCC (Biosane T212)) | ranking of contact angles among the molecules [1] | contact angle test oil ([1]; Au (gold-plated brass)) | contact angle test oil ([1]; Steel) | contact angle H2O ([2]; Au (gold-plated brass)) | contact angle H2O ([2]; Steel)
O=C(NCCS)C(F)(F)C(F)(F)C(F)(F)C(F)(F)C(F)(F)C(F)(F)C(F)(F)F [I.5] | 67.6 ± 3.6° | 49.5 ± 2.5° |  |  |  |  | 
O=C(NCCCCCCS)C(F)(OC(F)(F)C(F)(OC(F)(F)C(F)(OC(F)(F)C(F)(OC(F)(F)C(F)(OC(F)(F)C(F)(F)C(F)(F)F)C(F)(F)F)C(F)(F)F)C(F)(F)F)C(F)(F)F)C(F)(F)F (stereo not drawn) [I.3] | 75.7 ± 6° | 63.8 ± 2.8° | highest | 69.0 ° | 33.5 ° | 96.4 ° | 70.2 °
